Experimental findings from ChEMBL document CHEMBL1201862, “PubChem BioAssay data set” (2004) are described below.

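Results reflect a 48-hour exposure of cells in 96-well plates to compound at five concentrations. Abbreviation: GI50, concentration required for 50% inhibition of growth.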 Active and inactive are the calls of the source. Rule as the data show it: active = GI50 up to about 1.1 µM and inactive = higher.

Test systems include PC-3; BT-549; Hs-578T; MDA-MB-231; MDA-MB-435; SNB-78; LXFL 529; RXF 631; 786-0.
Common to all, as to test: growth of human tumour cells (NCI), 48 h

With `CC(=O)Nc1ccc2[nH]c(C(=O)N3CC(CCl)c4c3cc(N)c3ccccc43)cc2c1` (stereo not given), the GI50 is < 0.016 µM (active) with PC-3; < 0.0312 µM (active) in the experiment with BT-549; < 0.01 µM (active) with Hs-578T; < 0.0237 µM (active) in the experiment with MDA-MB-231; 0.0147 µM (active) in the experiment with MDA-MB-435.

On to `CCOC(=O)NC(=O)c1cn(CCN(CCO)C(=O)NCCCCCCNC(=O)N(CCO)CCn2cc(C(=O)NC(=O)OCC)c(=O)[nH]c2=O)c(=O)[nH]c1=O`, for which the GI50 in the experiment with SNB-78 is > 100 µM (inactive).

For `CCCCCCCCCOCC(COP(=O)([O-])OCC[N+](C)(C)C)OC` (stereo not given), in the experiment with SNB-78, the GI50 was > 100 µM (inactive).

On to `CCCCCCCCCCCCCCCC(=O)OC1C(O)C(CO)OC(OC)C1NC(=O)N(CCCl)N=O` (stereo not given), for which the GI50 was 12.6 µM (inactive) with LXFL 529, 19.5 µM (inactive) with SNB-78 and 16.8 µM (inactive) in the experiment with RXF 631.

Turning to `C=CCn1c(=O)c(Br)nn(CCOCP(=O)(OCC)OCC)c1=O`, the GI50 with PC-3, in the experiment on Hs-578T, in the experiment with MDA-MB-231 and with MDA-MB-435 was > 100 µM (inactive) throughout.

In the case of `NC(Cc1ccccc1)C(=O)N[C@H]1c2ccsc2/C(=N/O)[C@H]1O` (stereo not given in full), the GI50 in the experiment on PC-3, in the experiment with BT-549, with MDA-MB-231 and in the experiment with MDA-MB-435 was > 100 µM (inactive) throughout.

As for `NS(=O)(=O)C1CCCCC1C(=O)NNC(=O)C(=O)Nc1nnc(S)[nH]1` (stereo not given), the GI50 in the experiment with LXFL 529 and in the experiment on SNB-78 was > 100 µM (inactive) each time.

Take `CC(C)NC(=O)OCc1c2c(n(C)c1COC(=O)NC(C)C)-c1ccccc1CC2`: the GI50 with SNB-78 was 11.4 µM (inactive).

For `COc1ccc(C(=O)Cc2ccc(Br)cc2)cc1OC`, the GI50 in the experiment on LXFL 529 was > 100 µM (inactive); in the experiment with SNB-78, > 100 µM (inactive); in the experiment on RXF 631, 57.4 µM (inactive).

Take `O=[PH](O)c1cccs1`: the GI50 in the experiment on LXFL 529 is > 100 µM (inactive).

As to `COc1ccc(N2CN(C)CSC2=S)cc1`, the GI50 was > 100 µM (inactive) with PC-3; 75.5 µM (inactive) in the experiment on BT-549; > 100 µM (inactive) with Hs-578T; > 100 µM (inactive) in the experiment with MDA-MB-231; 43.3 µM (inactive) with MDA-MB-435.

As for `CO/N=C1/c2sccc2[C@H](NC(=O)C(F)(F)F)[C@@H]1O`, the GI50 in the experiment with PC-3, in the experiment with BT-549, in the experiment with Hs-578T, with MDA-MB-231 and in the experiment on MDA-MB-435 was > 100 µM (inactive) in each case.

For `Cc1ccc2c(=O)c3ccccc3sc2c1`, in the experiment with LXFL 529, the GI50 is > 100 µM (inactive).

For `COc1ccc(-c2c3ccccc3c(-c3ccc(OCCCCCBr)cc3)c3ccccc23)cc1`, the GI50 in the experiment on LXFL 529 is > 100 µM (inactive).

Regarding `Cc1ccc(S(=O)(=O)NCCCSCCSCCCN)cc1`, the GI50 with PC-3, in the experiment with Hs-578T, in the experiment with MDA-MB-231 and in the experiment with MDA-MB-435 was > 100 µM (inactive) each time.

In the case of `CN(C)c1ccc(/N=C2/C=CC(=C(C#N)C#N)c3ccccc32)cc1`, the GI50 with PC-3 is 0.183 µM (active); in the experiment with 786-0, 0.385 µM (active); in the experiment with SNB-78, 0.479 µM (active); in the experiment on BT-549, 0.828 µM (active); with Hs-578T, 0.361 µM (active); in the experiment on MDA-MB-231, 0.307 µM (active). Also, the GI50 in the experiment on MDA-MB-435 is 0.0391 µM (active).

As for `COC(=O)Cc1c(-c2c(CC(=O)OC)c3ccccc3n2C2OC(COC(C)=O)C(OC(C)=O)C(OC(C)=O)C2OC(C)=O)[nH]c2ccccc12` (stereo not given), the GI50 in the experiment on PC-3 is > 100 µM (inactive); in the experiment on BT-549, > 100 µM (inactive); with MDA-MB-231, 43.2 µM (inactive); in the experiment on MDA-MB-435, > 100 µM (inactive).

On to `CCCOC1OC(CS(=O)(=O)O)C(OC(C)=O)C(OC(C)=O)C1OC(C)=O` (stereo not given), for which the GI50 in the experiment on PC-3, in the experiment with BT-549, in the experiment with Hs-578T, in the experiment with MDA-MB-231 and with MDA-MB-435 was > 100 µM (inactive) throughout.

As to `CCCCCCc1ccc(O)cc1O` [HEXYLRESORCINOL], the GI50 in the experiment with SNB-78 is > 72.8 µM (inactive).

As for `O=C1CNC(=O)N1` [HYDANTOIN], the GI50 in the experiment on SNB-78 is > 1120 µM (inactive).

Regarding `O=C1N[C@@H]2C(=C[C@H](O)[C@@H](O)[C@H]2O)c2cc3c(c(O)c21)OCO3` [NARCICLASINE], the GI50 in the experiment on SNB-78 is 0.045 µM (active).

For `Oc1ccc(/C=C/c2cc(O)cc(O)c2)cc1` [RESVERATROL], the GI50 in the experiment on PC-3 is 42.4 µM (inactive); in the experiment on BT-549, > 100 µM (inactive); in the experiment with MDA-MB-231, > 100 µM (inactive); in the experiment with MDA-MB-435, 70.1 µM (inactive).

With `CC(=O)CC(=O)CCC(=O)O` [SUCCINYLACETONE], the GI50 in the experiment with SNB-78 was > 100 µM (inactive).
